Results: US6395738B1, “Benzofuran derivatives” (Kyowa Hakko Kogyo Co., Ltd., priority 1997, dated 2002)
In brackets after ≈: the same amount, converted by molar mass. Counter-ions that a name gives are not always drawn. Like-named read-outs stand apart in the source and are kept apart here.

Legend:
[1] = molecular target: T1, Recombinant Human PDE IV Enzyme (HSPDE4A) (Homo sapiens, UniProt P27815); assay: Inhibition test on recombinant human PDE IV enzyme; type: biochemical; conditions: [3H]cAMP substrate
T1 construct: except that 223 amino acids have been deleted from the N-terminal thereof; made in house; host or cells: E. coli
T1 sequence (P27815 224-886 limits assumed): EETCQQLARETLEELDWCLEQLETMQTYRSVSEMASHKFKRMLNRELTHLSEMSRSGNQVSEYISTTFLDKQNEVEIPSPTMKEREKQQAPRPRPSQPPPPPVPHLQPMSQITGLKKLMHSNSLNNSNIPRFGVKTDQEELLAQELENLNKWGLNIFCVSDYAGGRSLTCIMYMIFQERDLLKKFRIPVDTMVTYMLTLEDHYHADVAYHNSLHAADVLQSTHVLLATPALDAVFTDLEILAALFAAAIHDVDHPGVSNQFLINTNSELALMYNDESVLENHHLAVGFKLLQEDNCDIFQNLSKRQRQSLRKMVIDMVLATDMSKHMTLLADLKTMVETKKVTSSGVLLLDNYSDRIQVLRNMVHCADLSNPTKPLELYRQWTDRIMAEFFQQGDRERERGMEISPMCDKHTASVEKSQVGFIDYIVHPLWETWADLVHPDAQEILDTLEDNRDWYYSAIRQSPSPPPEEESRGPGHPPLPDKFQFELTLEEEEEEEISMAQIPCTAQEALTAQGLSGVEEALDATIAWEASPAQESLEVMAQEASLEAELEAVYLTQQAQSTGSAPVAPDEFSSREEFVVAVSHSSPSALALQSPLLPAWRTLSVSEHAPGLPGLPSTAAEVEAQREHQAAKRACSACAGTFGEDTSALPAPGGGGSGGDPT
Experimental: Inhibition Test on Recombinant Human PDE IV Enzyme
Human phosphodiesterase cDNA (HSPDE4A) was isolated from testicles. Its predicted amino acid sequence is identical with the sequence (HSPDE4A5) reported by Bolger, G. et al. (Mol. Cell. Biol., 6558 (1993)) except that 223 amino acids have been deleted from the N-terminal thereof. This recombinant protein was expressed by an E. coli expression plasmid and then purified. The PDE activity was measured in the following 2-step process according to the method of Kincaid, R. and Manganiello, V. [Method. Enzymol., 159, 457 (1988)]. The substrate used was [^3H]cAMP (final concentration: […]), and the reaction was performed in a standard mixture containing N,N-bis(2-hydroxyethyl)-2-aminoethanesulfonic acid (50 mmol/l, pH 7.2), MgCl2 (1 mmol/l) and soybean trypsin inhibitor (0.1 mg/ml). The reaction was initiated by adding the enzyme thereto, and the mixture was incubated at 30° C. for 10 to 30 minutes. The reaction was quenched by hydrochloric acid, and the formed 5′-AMP was completely decomposed with […]. This sample was subjected to chromatography on DEAE-Sephadex A-25, and the eluted [^3H]adenosine was counted with a scintillation counter. The test compound was added after dissolved (concentration: 1.7%) in DMSO.

[2] = test system: TNF α; assay: Inhibitory activity on production of TNF α in mouse model with LPS-induced sepsis; type: in vivo, BALB/c male mice; conditions: for Ratio of inhibition (%) of TNF α production: Dose (mg) 30, orally administered 90 minutes before LPS i.v., serum TNF α by ELISA 1 hour after LPS; for inhibitory activity on production of TNF α (in words): summary of Table 3
[3] = test system: Male Sunkus murinus; assay: Vomiting test on male Sunkus; type: in vivo; conditions: for Number of animals with vomiting/Number of tested animals: Dose (mg) 10, intraperitoneal, observed for 1 hour
Experimental: Vomiting Test on Male Sunkus
Male Sunkus murinus weighing about 60 g, 5 to 15 animals/group, were used in the test According to the method of Matsuki et al. (Japan J. Pharmacol., 48, 303 (1988)), each Sunkus animal was isolated and left in a wire-netting cage (15 cm width×21 cm length×15 cm height). Each test compound was suspended in physiological saline containing 0.5% Tween 80 and then intraperitoneally (i.p.) administered into each animal in a dose of 10 μl/g. […] The results were expressed in the number of animals with vomiting/the number of tested animals in the group given the test compound.
Compounds P and Q were used as the comparative compounds.

[4] = Water solubility; type: physicochemical
Experimental: Further, Compound (I) has an amide structure containing a piperazine ring at the 2-position of the benzofuran skeleton and can be converted into a pharmaceutically acceptable acid addition salt. […] For example, Compound 1 upon conversion into monohydrochloride becomes dissolved in water at a ratio of 7.4 μg/ml.

[5] = concentration of test compound 10^−7 mol/L
[6] = concentration of test compound 10^−8 mol/L

Row | melting point [°C] | Ratio of inhibition (%) [1, 5] [%] | Ratio of inhibition (%) [1, 6] [%] | Number of animals with vomiting/Number of tested animals [3] | solubility ([4]; Compound 1 upon conversion into monohydrochloride, read-out: dissolved in water (water solubility)) [µg/mL] | solubility ([4]; read-out: water solubility) [µg/mL] | Compound | Ratio of inhibition (%) of TNF α production [2] [%] | inhibitory activity on production of TNF α (in words) [2] | vomiting as a side effect (in words) ([3]; summary of Table 4)
1 | 234 to 236 | 75 | 9 | – | – | – | COc1ccc(C(=O)Nc2c(Cl)cncc2Cl)c2cc(C(=O)N3CC(C)N(C)C(C)C3)oc12 (stereo not shown) [Compound 10, 4-(3,5-Dichloro-4-pyridyl)carbamoyl-7-methoxy-2-(3,4,5-trimethyl-1-piperazinyl)carbonylbenzofuran] | 46 | – | –
2 | 224 to 225 | 75 | 25 | 0/5 | 7.4 (≈ 16 µM) | – | COc1ccc(C(=O)Nc2c(Cl)cncc2Cl)c2cc(C(=O)N3CCN(C)CC3)oc12 [Compound 1, 4-(3,5-Dichloro-4-pyridyl)carbamoyl-7-methoxy-2-(4-methyl-1-piperazinyl)carbonylbenzofuran] | 68 | – | –
3 | 160 to 161 | – | – | 0/5 | – | – | COc1ccc(C(=O)Cc2c(Cl)cncc2Cl)c2cc(C(=O)N3CCN(C)CC3)oc12 [Compound 13, 4-[2-(3,5-Dichloro-4-pyridyl)-1-oxoethyl]-2-(4-methyl-1-piperazinyl)carbonyl-7-methoxybenzofuran] | 65 | – | –
4 | 202 to 204 | 71 | 20 | – | – | – | CCN1CCN(C(=O)c2cc3c(C(=O)Nc4c(Cl)cncc4Cl)ccc(OC)c3o2)CC1.O=C(O)/C=C/C(=O)O [Compound 3, 4-(3,5-Dichloro-4-pyridyl)carbamoyl-2-(4-ethyl-1-piperazinyl)carbonyl-7-methoxybenzofuran monofumarate] | 50 | – | –
5 | 164 to 165 | 72 | 22 | 0/5 | – | – | COc1ccc(C(=O)Nc2c(Cl)cncc2Cl)c2cc(C(=O)N3CCN(CCO)CC3)oc12 [Compound 2, 4-(3,5-Dichloro-4-pyridyl)carbamoyl-2-[4-(2-hydroxyethyl)-1-piperazinyl]carbonyl-7-methoxybenzofuran] | 65 | – | –
6 | 132 to 133 | 78 | 29 | – | – | – | COc1ccc(C(=O)Nc2c(Cl)cncc2Cl)c2cc(C(=O)N3CCN(CCOCCO)CC3)oc12 [Compound 9, 4-(3,5-Dichloro-4-pyridyl)carbamoyl-2-{4-[2-(2-hydroxyethoxy)ethyl]-1-piperazinyl}carbonyl-7-methoxybenzofuran] | – | – | –
7 | 213 to 215 | – | – | – | – | – | COc1ccc(C(=O)Cc2c(Cl)cncc2Cl)c2cc(C(=O)N3CCN(C(CO)CO)CC3)oc12 [Compound 22, 4-[2-(3,5-Dichloro-4-pyridyl)-1-oxoethyl]-2-[4-(1,3-dihydroxy-2-propyl)-1-piperazinyl]carbonyl-7-methoxybenzofuran] | 52 | – | –
8 | 155 to 156 | – | – | 0/5 | – | – | COc1ccc(C(=O)Cc2c(Cl)cncc2Cl)c2cc(C(=O)N3CCN(CCO)CC3)oc12 [Compound 14, 4-[2-(3,5-Dichloro-4-pyridyl)-1-oxoethyl]-2-[4-(2-hydroxyethyl)-1-piperazinyl]carbonyl-7-methoxybenzofuran] | 65 | – | –
9 | – | 83 | 35 | – | – | – | COc1ccc(C(=O)Nc2c(Cl)cncc2Cl)c2cc(C(=O)N3CCN(CCCCO)CC3)oc12 [Compound 7, 4-(3,5-Dichloro-4-pyridyl)carbamoyl-2-(4-hydroxybutyl-1-piperazinyl)carbonyl-7-methoxybenzofuran] | – | – | –
10 | – | – | – | 0/5 | – | ≤ 1 | COc1ccc(C(=O)Nc2c(Cl)cncc2Cl)c2cc(C(=O)c3ccccc3)oc12 [Compound Q, 2-benzoyl-4-(3,5-dichloro-4-pyridyl)carbamoyl-7-methoxybenzofuran, reference compound] | 30 | high inhibitory activity | –
11 | 192 to 194 | 89 | 41 | – | – | – | CCC(CO)N1CCN(C(=O)c2cc3c(C(=O)Nc4c(Cl)cncc4Cl)ccc(OC)c3o2)CC1 (stereo not shown) [Compound 5, 4-(3,5-Dichloro-4-pyridyl)carbamoyl-2-[4-(1-hydroxy-2-butyl)-1-piperazinyl]carbonyl-7-methoxybenzofuran] | 53 | – | –
12 | – | 88 | 48 | – | – | – | COc1ccc(C(=O)Nc2c(Cl)cncc2Cl)c2cc(C(=O)N3CC(C)N(CCO)C(C)C3)oc12 (stereo not shown) [Compound 11, 4-(3,5-Dichloro-4-pyridyl)carbamoyl-2-(3,5-dimethyl-4-hydroxyethyl-7-methoxy-1-piperazinyl)carbonylbenzofuran] | – | – | –
13 | 120 to 121 | – | – | – | – | – | COc1ccc(C(=O)Cc2c(Cl)cncc2Cl)c2cc(C(=O)N3CCN(CCCCO)CC3)oc12 [Compound 21, 4-[2-(3,5-Dichloro-4-pyridyl)-1-oxoethyl]-2-[4-(4-hydroxybutyl)-1-piperazinyl]carbonyl-7-methoxybenzofuran] | 28 | – | –
14 | 148 to 150 | 85 | 28 | – | – | – | COC(=O)c1ccc(C(=O)Nc2c(Cl)cncc2Cl)c2cc(N3CCN(C(C)CO)CC3)oc12 (stereo not shown) [Compound 4, 4-(3,5-Dichloro-4-pyridyl)carbamoyl-2-[4-(1-hydroxy-2-propyl)-1-piperazinyl]-7-methoxycarbonylbenzofuran] | – | – | –
15 | 180 to 182 | 81 | 24 | – | – | – | COc1ccc(C(=O)Nc2c(Cl)cncc2Cl)c2cc(C(=O)N3CCN(CCCO)CC3)oc12 [Compound 6, 4-(3,5-Dichloro-4-pyridyl)carbamoyl-2-(4-hydroxypropyl-1-piperazinyl)carbonyl-7-methoxybenzofuran] | 33 | – | –

Row | Compound | melting point [°C] | Ratio of inhibition (%) [1, 5] [%] | Ratio of inhibition (%) [1, 6] [%] | Number of animals with vomiting/Number of tested animals [3] | solubility ([4]; Compound 1 upon conversion into monohydrochloride, read-out: dissolved in water (water solubility)) [µg/mL] | solubility ([4]; read-out: water solubility) [µg/mL] | Ratio of inhibition (%) of TNF α production [2] [%] | inhibitory activity on production of TNF α (in words) [2] | vomiting as a side effect (in words) ([3]; summary of Table 4)
16 | COc1ccc(C(=O)Cc2ccncc2)c2c1OC1(CCCC1)C2 [Compound P, 7-methoxy-4-[1-oxo-2-(4-pyridyl)ethyl]-spiro[2,3-dihydrobenzofuran-2,1′-cyclopentane].hydrochloride, reference compound] | – | – | – | 5/5 | – | – | 81 | high inhibitory activity | caused vomiting
